Results taken from patent publication US11690847B2, “Combinations of 15-PGDH inhibitors with corticosteroids and/or TNF inhibitors and uses thereof” (CASE WESTERN RESERVE UNIVERSITY, priority 2016, dated 2023).

Legend:
DSS induced colitis [1] = assay: DSS colitis treatment study: (+) SW033291, dexamethasone or combination from day 8; type: in vivo, mice; details: (+) SW033291 5 mpk IP twice daily, dexamethasone 0.06 mpk IP daily
[2] = stability on incubation with mouse liver extracts; type: in vitro ADME
[3] = stability on incubation with rat liver extracts; type: in vitro ADME
[4] = stability on incubation with human liver extracts; type: in vitro ADME
DSS induced colitis [5] = assay: dextran sodium sulfate (DSS) induced colitis, 2% DSS days 1-7, SW033291 versus vehicle; type: in vivo, FVB male mice
Description: In the study, 8-12 week old FVB male mice were fed with 2% DSS in drinking water for days 1-7, and then switched to normal drinking water beginning on day 8, and continued through day 22. […] Clinical scoring (body weight, rectal bleeding, stool consistency) was recorded daily, endoscopic scoring (ulcer number, mucosal thickening, and vascular pattern) was assessed on days 8, 11, 15. Mice were sacrificed on days 1, 8, 15 and 22 for assessment of colon length, colon weight, ulcer number, ulcer area, and crypt damage.
The Disease Activity Index is calculated as an equally weighted average of the change from baseline weight, the consistency of stool, and the presence of rectal bleeding, with each component normalized to span an identical numerical range.
In addition to the gross visual inspection and scoring of colitis activity by the MEICS index, full length colons of mice were formalin fixed and paraffin embedded, and microscopic scoring of crypt damage was performed using the 0-4 severity scale of Cooper H S. Et al., Lab Invest. 1993; 69:238-249. For this analysis, the colons were divided into 3 segments of proximal, middle, and distal colon, each approximately 1.6 cm in length, with each segment was further subdivided into 4 sections each approximately 4 mm in length. For each section the crypt damage severity score was multiplied by the length in mm of the damaged area, creating a 0-16 cryptitis severity index. An average cryptitis severity index was calculated for each segment (proximal, middle, and distal colon), and the summed whole colon cryptitis severity index was determined on a scale of 0-48 for each mouse colon.
Mice were injected with BrdU at 100 mg/kg IP 3 hours before sacrifice and then full length colons were formalin fixed and embedded in paraffin. S-phase cells, that have incorporated BrdU into DNA, were visualized by immuno-fluorescent staining of 5 μm thick sections with an antibody that detects the BrdU. Colonic crypts were visualized by immuno-fluorescent staining with an antibody to the epithelial marker E-Cadherin. […] Red immune-fluorescence identifies BrdU positive nuclei, and green immune-fluorescence identifies E-Cadherin positive colonocytes. The number of BrdU positive cell per crypt is determined by counting the number of dual labeled red and green cells per average crypt. Green only cells that are not in S-phase are not counted, and red only cells, that are likely stromal cells outside of crypts, are also not counted. […] The graph depicts the sum of the average number of BrdU positive cells per crypt in the distal colon plus the average number of BrdU positive cells per crypt middle colons of control (Cn), […] treated (Tx), and 15-PGDH knockout mice (KO) on day 1, day 8, and day 15 of the DSS treatment protocol.

[6] = stability on incubation with hepatocyte extracts; type: in vitro ADME
[7] = stability on incubation with hepatocyte cell lines; type: in vitro ADME

SMILES: CCCC[S+]([O-])c1sc2nc(-c3cccs3)cc(-c3ccccc3)c2c1N (single isomer, unassigned; (+)) [(+) SW033291]
- daily weights (weight loss) (DSS induced colitis [1]; days 1-17, from day 8, FIG. 15): some amelioration of weight loss

SMILES: C[C@@H]1C[C@H]2[C@@H]3CCC4=CC(=O)C=C[C@]4(C)[C@@]3(F)[C@@H](O)C[C@]2(C)[C@@]1(O)C(=O)CO [dexamethasone, reference compound]
- percent decrease in total DAI (relative disease reduction) (DSS induced colitis [1]; area under the DAI curve, FIG. 17B): 15%

SMILES: CCCC[S+]([O-])c1sc2nc(-c3nccs3)cc(-c3cnc(C)n3C)c2c1N (centres unmarked) [formula (X)]
- chemical stability when incubated with liver extracts [2]: chemically stable
- chemical stability when incubated with liver extracts [3]: chemically stable
- chemical stability when incubated with liver extracts [4]: chemically stable

SMILES: CCCC[S+]([O-])c1sc2nc(-c3cccs3)cc(-c3ccccc3)c2c1N (centres unmarked) [SW033291]
- average change from baseline weight versus control (DSS induced colitis [5]; 5 mg/kg IP twice daily, 22 days, FIG. 1): greater weight at all time points
- weight gain after washout of DSS versus control (DSS induced colitis [5]; 5 mg/kg IP twice daily, P=0.001, FIG. 1): faster weight gain
- Wt @sacrifice (DSS induced colitis [5]; Baseline): 25.9 ± 0.7 gm
- Wt @sacrifice (DSS induced colitis [5]; Day 8): 26.4 ± 0.5 gm
- Wt @sacrifice (DSS induced colitis [5]; Day 15): 25.2 ± 0.9 gm
- Wt @sacrifice (DSS induced colitis [5]; Day 22): 28.2 ± 0.5 gm
- body weight versus vehicle control (in words) (DSS induced colitis [5]; day 22): greater body weight
- colon length versus vehicle control (in words) (DSS induced colitis [5]; day 22): greater colon lengths
- ulcer formation prevented (colonoscopy) (DSS induced colitis [5]; days 8, 11, 15, versus control, FIG. 4A): two-thirds
- MEICS score versus vehicle (DSS induced colitis [5]; days 8, 11 and 15, FIG. 7): significantly less colitis activity

SMILES: CCCC[S+]([O-])c1sc2nc(-c3cccs3)cc(-c3ccccc3)c2c1N (centres unmarked) [formula (IX)]
- chemical stability when incubated with hepatocyte extracts [6]: chemically stable
- chemical stability when incubated with hepatocyte cell lines [7]: chemically stable
